Laboratory results taken from publication PMC12680558, “Design, Synthesis, In Silico Absorption, Distribution, Metabolism, and Elimination and Molecular Docking Studies of Thiazole‐Based Furan Derivatives, and Their Biological Evaluation for Alzheimer Disease Therapy” (ChemistryOpen, 2025).
Values joined by “and” are separate entries in the source; they are usually repeats but may differ in a detail not shown here. Equal values may be shown once.

Key:
[1] = DPPH radical scavenging assay; settings: 2 µg mL^−1
Procedure: (§1) The methods outlined by Blois and Re were used to assess the DPPH^ · and ABTS^+· free radical scavenging activities, respectively.^[ [58], [59] ^– [60] ^] A series of stock concentrations of synthesized thiazole‐based furan derivatives (2a‐2m) was prepared. For DPPH assay, a radical solution of 1 mM DPPH solution was prepared. Final concentrations were adjusted by diluting the sample stock solutions with ethanol to a total volume of 2 mL and then adding 0.5 mL of DPPH solution to each tube. The mixtures were incubated at room temperature and protected from light for 30 min. Absorbance was measured at 517 nm. In the ABTS test, 7 mM ABTS solution was prepared, and radical cations were formed by adding 2.45 mM persulfate. The absorbance of the control solution was adjusted to 0.700 ± 0.025 at 734 nm. For analysis, 0.5 mL of ABTS^+· radical solution was added to each sample. The absorbance at 734 nm was then measured against the blank solution following a 30 min incubation period.

[2] = ABTS radical scavenging assay; settings: 2 µg mL^−1
Procedure: as §1

AChE = biological target: T1, AChE (Electrophorus electricus, UniProt O42275); test: biochemical; settings: for Ki: Lineweaver–Burk plots; for AChE/BChE SI (selectivity index): SI = KI (AChE)/KI (BChE); for IC50: substrate ATChI, 37 °C
T1 construct: AChE (from electric eels); from tissue
T1 sequence (O42275 24-633): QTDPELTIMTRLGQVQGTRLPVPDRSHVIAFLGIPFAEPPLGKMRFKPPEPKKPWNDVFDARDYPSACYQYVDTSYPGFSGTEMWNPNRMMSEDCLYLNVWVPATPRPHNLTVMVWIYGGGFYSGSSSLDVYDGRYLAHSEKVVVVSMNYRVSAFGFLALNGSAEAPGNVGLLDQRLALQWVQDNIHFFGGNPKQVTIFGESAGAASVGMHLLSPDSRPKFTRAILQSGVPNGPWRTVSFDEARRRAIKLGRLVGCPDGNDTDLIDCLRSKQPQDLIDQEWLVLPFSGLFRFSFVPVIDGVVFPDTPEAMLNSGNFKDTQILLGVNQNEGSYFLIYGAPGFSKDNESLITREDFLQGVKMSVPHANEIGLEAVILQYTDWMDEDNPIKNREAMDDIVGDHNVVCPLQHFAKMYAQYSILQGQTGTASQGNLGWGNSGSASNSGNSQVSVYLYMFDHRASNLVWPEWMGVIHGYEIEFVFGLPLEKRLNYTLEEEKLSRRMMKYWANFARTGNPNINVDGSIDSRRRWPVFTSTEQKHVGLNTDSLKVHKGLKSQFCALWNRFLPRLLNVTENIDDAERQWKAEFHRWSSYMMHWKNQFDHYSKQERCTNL
Procedure: Activity variations were tracked at 37 °C using acetylthiocholine iodide (ATChI) as a substrate for AChE (from electric eels) and butyrylcholine iodide (BChI) as a substrate for BChE (from horse serum).
Using at least five different inhibitor concentrations against the AChE and BChE enzymes, the inhibitory effects of thiazole‐based furan derivatives were assessed across a range of inhibitor doses. […] Furthermore, Lineweaver–Burk plots were used to assess inhibition types and inhibition constants (K I), providing thorough information on the kinetic behavior of these inhibitors.^[ [64] ^, [65] ^]

BChE = biological target: T2, BChE (Equus caballus, UniProt P81908); test: biochemical; settings: for Ki: Lineweaver–Burk plots; for IC50: substrate BChI, 37 °C
T2 construct: BChE (from horse serum); from tissue; host or cells: horse serum
T2 sequence (P81908 whole entry): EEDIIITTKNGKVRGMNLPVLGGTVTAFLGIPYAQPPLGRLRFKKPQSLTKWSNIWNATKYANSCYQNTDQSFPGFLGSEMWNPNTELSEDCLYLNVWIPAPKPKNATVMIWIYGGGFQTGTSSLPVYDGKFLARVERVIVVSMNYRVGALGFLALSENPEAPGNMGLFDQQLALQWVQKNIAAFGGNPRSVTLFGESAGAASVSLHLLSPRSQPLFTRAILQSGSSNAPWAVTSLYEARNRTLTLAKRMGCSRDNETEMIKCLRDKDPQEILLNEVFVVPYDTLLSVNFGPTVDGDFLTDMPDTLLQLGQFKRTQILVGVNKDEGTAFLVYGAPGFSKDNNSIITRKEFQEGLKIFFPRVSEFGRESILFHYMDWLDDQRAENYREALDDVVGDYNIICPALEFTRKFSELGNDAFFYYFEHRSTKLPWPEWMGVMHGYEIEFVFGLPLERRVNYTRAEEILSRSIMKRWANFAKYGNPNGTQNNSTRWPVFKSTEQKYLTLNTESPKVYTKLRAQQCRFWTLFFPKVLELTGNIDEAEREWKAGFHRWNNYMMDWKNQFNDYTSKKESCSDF

Row | Compound | DPPH percent radical scavenging [1] | ABTS percent radical scavenging [2] | Ki (AChE) [µM] | AChE/BChE SI (selectivity index) (AChE) | IC50 (AChE) [µM] | Ki (BChE) [µM] | IC50 (BChE) [µM]
1 | O=[N+]([O-])c1ccc(-c2csc(NN=Cc3ccc(CO)o3)n2)cc1 [2a, 4‐(4‐Nitrophenyl)‐2‐(2‐((5‐hydroxymethylfuran‐2‐yl)methylene)hydrazineyl)thiazole] | 12.202% and 12.202 ± 0.965% | 56.842% and 56.842 ± 4.346% | 14.9 ± 1.05 | 2.469 | 21.7 | 6.03 ± 0.523 | 8.77
2 | COc1ccc(-c2csc(NN=Cc3ccc(CO)o3)n2)cc1 [2b, 4‐(4‐Methoxyphenyl)‐2‐(2‐((5‐Hydroxymethylfuran‐2‐Yl)methylene)hydrazineyl)thiazole] | 1.109 ± 0.762% | 2.105 ± 0.176% | 14.5 ± 1.12 | 0.609 | 21.1 | 23.82 ± 0.132 | 34.7
3 | N#Cc1ccc(-c2csc(NN=Cc3ccc(CO)o3)n2)cc1 [2c, 4‐(4‐Cyanophenyl)‐2‐(2‐((5‐Hydroxymethylfuran‐2‐Yl)methylene)hydrazineyl)thiazole] | 3.512 ± 0.237% | 15.789 ± 1.365% | 31.8 ± 2.86 | 3.334 | 46.2 | 9.53 ± 0.824 | 13.9
4 | OCc1ccc(C=NNc2nc(-c3ccc(F)cc3)cs2)o1 [2d, 4‐(4‐Fluorophenyl)‐2‐(2‐((5‐Hydroxymethylfuran‐2‐Yl)methylene)hydrazineyl)thiazole] | 1.848 ± 0.095% | 6.316 ± 0.584% | 36.7 ± 3.22 | 4.925 | 53.3 | 7.44 ± 0.565 | 10.8
5 | OCc1ccc(C=NNc2nc(-c3ccc(-c4ccccc4)cc3)cs2)o1 [2e, 4‐([1,1^′‐Biphenyl]‐4‐Yl)‐2‐(2‐((5‐Hydroxymethylfuran‐2‐Yl)methylene)hydrazineyl) Thiazole] | 4.621 ± 0.372% | 17.105 ± 1.248% | 34 ± 2.1 | 5.287 | 49.5 | 6.44 ± 0.452 | 9.36
6 | OCc1ccc(C=NNc2nc(-c3ccc(Br)cc3)cs2)o1 [2f, 4‐(4‐Bromophenyl)‐2‐(2‐((5‐Hydroxymethylfuran‐2‐Yl)methylene)hydrazineyl)thiazole] | 7.579 ± 0.648% | 22.107 ± 1.728% | 26.5 ± 1.81 | 5.557 | 38.5 | 4.76 ± 0.321 | 6.93
7 | Cc1ccc(-c2csc(NN=Cc3ccc(CO)o3)n2)cc1 [2g, 4‐(4‐Methylphenyl)‐2‐(2‐((5‐Hydroxymethylfuran‐2‐Yl)methylene)hydrazineyl)thiazole] | 4.067 ± 0.289% | 11.053 ± 1.012% | 36.7 ± 2.56 | 2.847 | 53.3 | 12.9 ± 1.21 | 18.7
8 | OCc1ccc(C=NNc2nc(-c3ccc(Cl)c(Cl)c3)cs2)o1 [2h, 4‐(3,4‐Dichlorophenyl)‐2‐(2‐((5‐Hydroxymethylfuran‐2‐Yl)methylene)hydrazineyl) Thiazole] | 5.361 ± 0.486% | 12.106 ± 1.036% | 26.7 ± 2.04 | 3.257 | 38.9 | 8.21 ± 0.722 | 11.9
9 | OCc1ccc(C=NNc2nc(-c3ccc(F)cc3F)cs2)o1 [2i, 4‐(2,4‐Difluorophenyl)‐2‐(2‐((5‐Hydroxymethylfuran‐2‐Yl)methylene)hydrazineyl) Thiazole] | 13.309% and 13.309 ± 1.278% | 31.842% and 31.842 ± 2.785% | 43.4 ± 3.56 | 6.650 | 63.1 | 6.52 ± 0.428 | 9.49
10 | OCc1ccc(C=NNc2nc(-c3ccccc3)cs2)o1 [2j, 4‐Phenyl‐2‐(2‐((5‐hydroxymethylfuran‐2‐yl)methylene)hydrazineyl)thiazole] | 9.057 ± 0.834% | 28.158 ± 2.075% | 42.5 ± 3.49 | 3.134 | 61.9 | 13.6 ± 1.05 | 19.7
11 | OCc1ccc(C=NNc2nc(-c3ccc(Cl)cc3)cs2)o1 [2k, 4‐(4‐Chlorophenyl)‐2‐(2‐((5‐hydroxymethylfuran‐2‐yl)methylene)hydrazineyl)thiazole] | 6.470 ± 0.574% | 11.842 ± 0.982% | 39.4 ± 3.25 | 4.629 | 57.3 | 8.51 ± 0.684 | 12.4
12 | OCc1ccc(C=NNc2nc(-c3ccc(Cl)cc3Cl)cs2)o1 [2l, 4‐(2,4‐Dichlorophenyl)‐2‐(2‐((5‐Hydroxymethylfuran‐2‐Yl)methylene)hydrazineyl) Thiazole] | 4.436 ± 0.386% | 21.053 ± 1.793% | 42.1 ± 3.79 | 7.345 | 61.3 | 5.74 ± 0.384 | 8.35
13 | O=[N+]([O-])c1cccc(-c2csc(NN=Cc3ccc(CO)o3)n2)c1 [2m, 4‐(3‐Nitrophenyl)‐2‐(2‐((5‐Hydroxymethylfuran‐2‐Yl)methylene)hydrazineyl)thiazole] | 11.275 ± 1.021% | 30.789 ± 2.489% | 59.6 ± 4.82 | 4.001 | 86.6 | 14.9 ± 1.35 | 21.7
14 | Cc1c(C)c2c(c(C)c1O)CCC(C)(C(=O)O)O2 (stereo not drawn) [Trolox, reference compound] | 13.863 ± 1.023% | 29.211 ± 2.043% | – | – | – | – | –
